From ChEMBL document CHEMBL5050844 (2019)

Assays:
[1] = target: T1, E3 ubiquitin-protein ligase CBL-B (Homo sapiens, UniProt Q13191); experiment: Binding affinity towards N-terminal biotinylated Avi-tagged human CBL-B (36 to 427 residues) measured by surface plasmon resonance assay
[2] = Induction of anti-CD3 antibodies-stimulated human T cell activation at 1 uM assessed fold increase in CD25 expression measured by ELISA assay; assay type: functional, T cell line; note: reference of the scale not given here
[3] = Induction of anti-CD3/CD28 antibodies-stimulated human T cell activation at 1 uM assessed fold increase in CD25 expression measured by ELISA assay; assay type: functional, T cell line
[4] = Induction of anti-CD3 antibodies-stimulated human T cell activation at 8 uM assessed fold increase in CD25 expression measured by ELISA assay; assay type: functional, T cell line; note: reference of the scale not given here
[5] = Induction of anti-CD3/CD28 antibodies-stimulated human T cell activation at 4 uM assessed fold increase in IL-2 secretion measured by ELISA assay; assay type: functional, T cell line
[6] = Induction of anti-CD3/CD28 antibodies-stimulated human T cell activation at 0.3 uM assessed fold increase in CD25 expression measured by ELISA assay; assay type: functional, T cell line
[7] = target: T1, E3 ubiquitin-protein ligase CBL-B; experiment: Inhibition of N-terminal Avi-tagged human CBL-B (36 to 427 residues) incubated with 60 nM Src kinase for 1.5 hrs followed by incubation with fluorescently labeled UbcH5B-Ub for 1 hr and measured by TR-FRET assay; assay type: single protein
[8] = Induction of anti-CD3/CD28 antibodies-stimulated human T cell activation at 0.3 uM assessed fold increase in IL-2 secretion measured by ELISA assay; assay type: functional, T cell line
[9] = Induction of anti-CD3/CD28 antibodies-stimulated human T cell activation at 1 uM assessed fold increase in IL-2 secretion measured by ELISA assay; assay type: functional, T cell line
[10] = Induction of anti-CD3 antibodies-stimulated human T cell activation at 8 uM assessed fold increase in IL-2 secretion measured by ELISA assay; assay type: functional, T cell line; note: reference of the scale not given here
[11] = Induction of anti-CD3 antibodies-stimulated human T cell activation at 1 uM assessed fold increase in IL-2 secretion measured by ELISA assay; assay type: functional, T cell line; note: reference of the scale not given here
[12] = Induction of anti-CD3/CD28 antibodies-stimulated human T cell activation at 4 uM assessed fold increase in CD25 expression measured by ELISA assay; assay type: functional, T cell line

T1 sequence (Q13191 whole entry, the tested form may be a part): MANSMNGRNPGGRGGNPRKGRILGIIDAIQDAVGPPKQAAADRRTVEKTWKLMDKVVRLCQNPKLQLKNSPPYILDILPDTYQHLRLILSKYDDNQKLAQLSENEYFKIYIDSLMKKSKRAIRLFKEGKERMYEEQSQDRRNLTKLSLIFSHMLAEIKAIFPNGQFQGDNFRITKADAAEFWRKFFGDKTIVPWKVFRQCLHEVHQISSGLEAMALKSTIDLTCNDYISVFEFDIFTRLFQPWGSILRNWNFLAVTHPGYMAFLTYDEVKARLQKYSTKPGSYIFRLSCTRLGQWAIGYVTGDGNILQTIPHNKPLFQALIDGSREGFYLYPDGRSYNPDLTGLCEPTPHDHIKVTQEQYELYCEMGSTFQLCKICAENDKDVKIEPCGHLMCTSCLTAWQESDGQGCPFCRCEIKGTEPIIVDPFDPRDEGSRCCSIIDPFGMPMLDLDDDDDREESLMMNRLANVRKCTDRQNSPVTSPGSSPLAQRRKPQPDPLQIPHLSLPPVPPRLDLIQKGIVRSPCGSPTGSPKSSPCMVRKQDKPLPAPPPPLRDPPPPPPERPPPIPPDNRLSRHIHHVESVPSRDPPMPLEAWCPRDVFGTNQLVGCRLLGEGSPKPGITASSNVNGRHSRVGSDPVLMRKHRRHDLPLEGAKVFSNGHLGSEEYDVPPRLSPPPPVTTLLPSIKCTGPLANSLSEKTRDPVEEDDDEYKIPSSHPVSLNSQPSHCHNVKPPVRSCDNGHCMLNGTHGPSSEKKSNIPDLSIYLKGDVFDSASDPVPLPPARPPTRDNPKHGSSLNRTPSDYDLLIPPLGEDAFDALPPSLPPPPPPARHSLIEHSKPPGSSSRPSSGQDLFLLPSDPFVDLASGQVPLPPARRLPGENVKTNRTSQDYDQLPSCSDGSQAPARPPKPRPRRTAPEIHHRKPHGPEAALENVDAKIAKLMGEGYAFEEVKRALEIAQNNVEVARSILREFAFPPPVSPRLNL

SMILES | Kd [1] [nM] | fold change (FC) [2] | fold change (FC) [3] | fold change (FC) [4] | fold change (FC) [5] | fold change (FC) [6] | IC50 [7] [nM] | fold change (FC) [8] | fold change (FC) [9] | fold change (FC) [10] | fold change (FC) [11] | fold change (FC) [12]
Cn1cnnc1C(F)(F)[C@](C)(F)c1cccc(N2Cc3c(cc(CN4CC[C@@H](S(C)(=O)=O)C4)cc3C(F)(F)F)C2=O)c1 | < 100 | 0.801 | 1.01 | >=1.001 | >=7.5 | 1.01 | < 100 | 2.51 | 5 | >=0.201 | 0.151 | 1.31
C[C@H](Cc1nncn1C)c1cccc(N2Cc3c(cc(-n4cccn4)cc3C(F)(F)F)C2=O)c1 | < 100 | >=1.001 | 1.51 | >=1.001 | >=7.5 | 1.31 | < 100 | 2.51 | >=7.5 | >=0.201 | >=0.201 | 1.51
C[C@H](Cc1nncn1C)c1cccc(N2Cc3c(cc(CO)cc3C(F)(F)F)C2=O)c1 | < 100 | >=1.001 | 1.01 | >=1.001 | >=7.5 | 1.01 | < 100 | 2.51 | 5 | >=0.201 | 0.151 | 1.31
Cn1cnnc1C(F)(F)[C@](C)(F)c1cccc(N2Cc3c(cc(CN4CC(F)C4)cc3C(F)(F)F)C2=O)c1 | < 100 | 0.801 | 1.01 | >=1.001 | >=7.5 | 1.01 |  | 1.01 | 5 | >=0.201 | 0.101 | 1.31
Cn1cnnc1CC1(c2cccc(NC(=O)c3cc(Cn4ccnn4)nc(C4CC4)n3)c2)COC1 | < 100 | 0.801 | 1.31 |  |  | 1.01 | < 100 | 1.01 | 2.51 |  | 0.101 | 
Cc1cc(C(=O)Nc2cccc([C@@](C)(F)C(F)(F)c3nncn3C)c2)nc(C2CC2)n1 | < 100 | 0.801 | 1.31 | >=1.001 | >=7.5 | 1.01 |  | 1.01 | 2.51 | >=0.201 | 0.101 | 1.31
C[C@H](c1cc2c(c(C(F)(F)F)c1)CN(c1cccc(C3(C(F)(F)c4nncn4C)COC3)c1)C2=O)N1CC[C@H](F)C1 | < 100 | >=1.001 | >=1.76 |  |  | >=1.76 | < 100 | >=7.5 | >=7.5 |  | >=0.201 | 
